Values after ≈ are worked out from the molar mass of the structure shown.
target: Tyrosine-protein kinase JAK1 (Homo sapiens, UniProt P23458); assay: Inhibition of GST-fused JAK1 (866 to 1154 residues)(unknown origin) using FITC-Ahr-KKSRGDYMTMQIG-NH2 peptide as substrate incubated for 30 mins in presence of ATP by caliper microfluidic mobility shift assay; conditions: not given
Sequence (P23458 whole entry, the tested form may be a part): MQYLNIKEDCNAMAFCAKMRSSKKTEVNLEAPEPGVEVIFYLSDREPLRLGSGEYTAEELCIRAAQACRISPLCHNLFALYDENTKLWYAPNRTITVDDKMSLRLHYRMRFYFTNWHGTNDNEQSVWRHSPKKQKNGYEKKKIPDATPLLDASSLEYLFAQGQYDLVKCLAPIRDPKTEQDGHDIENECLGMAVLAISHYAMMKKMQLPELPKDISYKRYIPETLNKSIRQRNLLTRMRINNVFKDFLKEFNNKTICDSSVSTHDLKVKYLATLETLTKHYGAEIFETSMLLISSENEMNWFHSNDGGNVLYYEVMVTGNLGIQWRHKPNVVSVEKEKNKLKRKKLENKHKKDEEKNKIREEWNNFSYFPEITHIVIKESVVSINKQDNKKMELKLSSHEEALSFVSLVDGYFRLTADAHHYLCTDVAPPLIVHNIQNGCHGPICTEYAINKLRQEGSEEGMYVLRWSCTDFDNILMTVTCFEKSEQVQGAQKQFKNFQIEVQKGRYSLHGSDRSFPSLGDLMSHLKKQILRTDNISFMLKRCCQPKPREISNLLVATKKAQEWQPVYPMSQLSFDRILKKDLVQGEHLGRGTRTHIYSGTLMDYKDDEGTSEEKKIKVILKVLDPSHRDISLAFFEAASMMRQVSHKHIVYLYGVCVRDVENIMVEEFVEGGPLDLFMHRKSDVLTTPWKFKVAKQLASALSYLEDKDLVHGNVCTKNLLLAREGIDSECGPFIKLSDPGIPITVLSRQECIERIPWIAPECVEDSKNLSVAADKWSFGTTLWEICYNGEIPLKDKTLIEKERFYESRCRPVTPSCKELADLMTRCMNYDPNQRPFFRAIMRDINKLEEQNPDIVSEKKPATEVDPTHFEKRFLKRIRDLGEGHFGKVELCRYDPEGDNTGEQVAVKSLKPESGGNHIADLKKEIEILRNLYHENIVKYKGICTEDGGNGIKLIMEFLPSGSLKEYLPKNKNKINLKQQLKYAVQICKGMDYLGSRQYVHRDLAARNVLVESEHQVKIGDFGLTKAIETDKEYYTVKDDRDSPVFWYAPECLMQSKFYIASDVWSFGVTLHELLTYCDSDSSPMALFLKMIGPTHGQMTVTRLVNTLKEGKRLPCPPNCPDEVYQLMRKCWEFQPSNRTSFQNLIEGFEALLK

SMILES	IC50 [nM]
COC[C@H](C)OC(=O)Cc1ccc(Nc2cc(Nc3ccccc3OC)c(C(N)=O)cn2)nc1	1
CC(C)OC(=O)Cc1ccc(Nc2cc(Nc3ccccc3Cl)c(C(N)=O)cn2)nc1	29
COc1ccccc1Nc1cc(Nc2ccc(CC(=O)O[C@@H]3CCOC3)cn2)ncc1C(N)=O	3
CCOC(=O)Cc1ccc(Nc2cc(Nc3ccccc3OC)c(C(N)=O)cn2)nc1	19
COCCOC(=O)Cc1ccc(Nc2cc(Nc3ccccc3OC)c(C(N)=O)cn2)nc1	6
CCOC(=O)Cc1ccc(Nc2cc(Nc3ccccc3Cl)c(C(N)=O)cn2)nc1	20

target: Tyrosine-protein kinase JAK2 (Homo sapiens, UniProt O60674); assay: Inhibition of GST-fused JAK2 (808 to 1132 residues)(unknown origin) using Carboxyfluorescein-Ahx-GGEEEEYFELVKKKK peptide as substrate incubated for 30 mins in presence of ATP by caliper microfluidic mobility shift assay; conditions: not given
Sequence (O60674 whole entry, the tested form may be a part): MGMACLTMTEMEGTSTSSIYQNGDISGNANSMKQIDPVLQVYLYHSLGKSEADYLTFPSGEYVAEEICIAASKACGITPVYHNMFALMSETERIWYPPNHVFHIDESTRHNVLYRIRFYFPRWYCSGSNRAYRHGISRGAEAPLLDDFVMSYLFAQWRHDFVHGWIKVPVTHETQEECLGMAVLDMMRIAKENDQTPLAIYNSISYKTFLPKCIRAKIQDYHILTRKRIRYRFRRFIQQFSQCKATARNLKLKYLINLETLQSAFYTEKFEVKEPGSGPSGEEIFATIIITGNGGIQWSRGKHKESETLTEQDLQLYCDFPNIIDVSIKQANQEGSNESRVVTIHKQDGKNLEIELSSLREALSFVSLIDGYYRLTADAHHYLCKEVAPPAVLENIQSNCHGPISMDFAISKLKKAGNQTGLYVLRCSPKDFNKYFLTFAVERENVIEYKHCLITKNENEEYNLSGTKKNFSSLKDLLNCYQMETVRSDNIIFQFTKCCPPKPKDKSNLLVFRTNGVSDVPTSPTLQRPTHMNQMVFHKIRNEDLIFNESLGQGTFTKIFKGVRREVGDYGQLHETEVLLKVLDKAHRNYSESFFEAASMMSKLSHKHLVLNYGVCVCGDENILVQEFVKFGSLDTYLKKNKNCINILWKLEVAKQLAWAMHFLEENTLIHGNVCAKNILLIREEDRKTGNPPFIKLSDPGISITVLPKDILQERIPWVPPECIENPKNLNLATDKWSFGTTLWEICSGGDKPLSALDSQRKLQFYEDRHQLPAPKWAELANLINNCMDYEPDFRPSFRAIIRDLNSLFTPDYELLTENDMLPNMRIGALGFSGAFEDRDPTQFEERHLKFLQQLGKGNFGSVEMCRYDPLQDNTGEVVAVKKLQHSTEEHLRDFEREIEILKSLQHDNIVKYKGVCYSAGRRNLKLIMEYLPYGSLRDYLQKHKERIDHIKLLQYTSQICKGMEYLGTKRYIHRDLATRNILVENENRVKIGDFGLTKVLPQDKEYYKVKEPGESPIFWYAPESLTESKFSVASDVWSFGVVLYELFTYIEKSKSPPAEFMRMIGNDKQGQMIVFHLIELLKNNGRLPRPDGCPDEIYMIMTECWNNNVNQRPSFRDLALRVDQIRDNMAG

SMILES	IC50 [nM]
COC[C@H](C)OC(=O)Cc1ccc(Nc2cc(Nc3ccccc3OC)c(C(N)=O)cn2)nc1	2
CC(C)OC(=O)Cc1ccc(Nc2cc(Nc3ccccc3Cl)c(C(N)=O)cn2)nc1	27
COc1ccccc1Nc1cc(Nc2ccc(CC(=O)O[C@@H]3CCOC3)cn2)ncc1C(N)=O	4
CCOC(=O)Cc1ccc(Nc2cc(Nc3ccccc3OC)c(C(N)=O)cn2)nc1	26
COCCOC(=O)Cc1ccc(Nc2cc(Nc3ccccc3OC)c(C(N)=O)cn2)nc1	6
CCOC(=O)Cc1ccc(Nc2cc(Nc3ccccc3Cl)c(C(N)=O)cn2)nc1	17

target: T1, Tyrosine-protein kinase JAK3 (Homo sapiens, UniProt P52333); assay: Inhibition of GST-fused JAK3 (811 to 1124 residues)(unknown origin) using Carboxyfluorescein-Ahx-GGEEEEYFELVKKKK peptide as substrate incubated for 30 mins in presence of ATP by caliper microfluidic mobility shift assay; conditions: not given
T1 sequence (P52333 whole entry): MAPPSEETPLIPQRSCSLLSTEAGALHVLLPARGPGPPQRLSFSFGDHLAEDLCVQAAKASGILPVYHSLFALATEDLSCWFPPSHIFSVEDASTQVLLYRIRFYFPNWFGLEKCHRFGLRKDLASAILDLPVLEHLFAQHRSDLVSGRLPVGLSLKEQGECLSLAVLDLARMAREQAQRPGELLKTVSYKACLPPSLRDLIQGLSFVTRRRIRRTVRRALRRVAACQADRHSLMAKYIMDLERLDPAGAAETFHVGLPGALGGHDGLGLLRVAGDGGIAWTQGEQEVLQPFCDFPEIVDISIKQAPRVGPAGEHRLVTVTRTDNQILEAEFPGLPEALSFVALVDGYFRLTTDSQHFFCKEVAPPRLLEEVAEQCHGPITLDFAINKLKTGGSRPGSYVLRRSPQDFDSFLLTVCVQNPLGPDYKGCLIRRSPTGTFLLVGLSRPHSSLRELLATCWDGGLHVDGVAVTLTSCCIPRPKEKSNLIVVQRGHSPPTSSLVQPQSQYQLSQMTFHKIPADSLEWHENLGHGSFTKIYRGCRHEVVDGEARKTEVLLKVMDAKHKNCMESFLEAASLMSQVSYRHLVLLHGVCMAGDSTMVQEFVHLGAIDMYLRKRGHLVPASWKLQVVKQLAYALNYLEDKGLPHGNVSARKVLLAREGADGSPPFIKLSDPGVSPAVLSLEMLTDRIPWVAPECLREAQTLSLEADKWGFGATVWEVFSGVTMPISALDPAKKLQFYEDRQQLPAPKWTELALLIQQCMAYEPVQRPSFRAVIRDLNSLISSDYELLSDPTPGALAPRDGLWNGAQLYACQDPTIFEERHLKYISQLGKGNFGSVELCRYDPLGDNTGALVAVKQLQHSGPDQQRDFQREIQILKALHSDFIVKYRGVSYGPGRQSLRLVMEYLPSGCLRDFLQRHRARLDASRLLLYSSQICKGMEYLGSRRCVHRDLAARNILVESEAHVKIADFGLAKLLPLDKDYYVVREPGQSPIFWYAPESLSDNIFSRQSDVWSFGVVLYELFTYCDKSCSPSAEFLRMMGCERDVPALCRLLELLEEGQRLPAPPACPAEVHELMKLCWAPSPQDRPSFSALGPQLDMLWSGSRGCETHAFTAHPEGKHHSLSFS

SMILES	IC50 [nM]
COC[C@H](C)OC(=O)Cc1ccc(Nc2cc(Nc3ccccc3OC)c(C(N)=O)cn2)nc1	1
CC(C)OC(=O)Cc1ccc(Nc2cc(Nc3ccccc3Cl)c(C(N)=O)cn2)nc1	28
COc1ccccc1Nc1cc(Nc2ccc(CC(=O)O[C@@H]3CCOC3)cn2)ncc1C(N)=O	3
CCOC(=O)Cc1ccc(Nc2cc(Nc3ccccc3OC)c(C(N)=O)cn2)nc1	56
COCCOC(=O)Cc1ccc(Nc2cc(Nc3ccccc3OC)c(C(N)=O)cn2)nc1	4
CCOC(=O)Cc1ccc(Nc2cc(Nc3ccccc3Cl)c(C(N)=O)cn2)nc1	18

target: Non-receptor tyrosine-protein kinase TYK2 (Homo sapiens, UniProt P29597); assay: Inhibition of GST-fused TYK2 (888 to 1187 residues)(unknown origin) using FITC-Ahr-KKSRGDYMTMQIG-NH2 peptide as substrate incubated for 30 mins in presence of ATP by caliper microfluidic mobility shift assay; conditions: not given
Sequence (P29597 whole entry, the tested form may be a part): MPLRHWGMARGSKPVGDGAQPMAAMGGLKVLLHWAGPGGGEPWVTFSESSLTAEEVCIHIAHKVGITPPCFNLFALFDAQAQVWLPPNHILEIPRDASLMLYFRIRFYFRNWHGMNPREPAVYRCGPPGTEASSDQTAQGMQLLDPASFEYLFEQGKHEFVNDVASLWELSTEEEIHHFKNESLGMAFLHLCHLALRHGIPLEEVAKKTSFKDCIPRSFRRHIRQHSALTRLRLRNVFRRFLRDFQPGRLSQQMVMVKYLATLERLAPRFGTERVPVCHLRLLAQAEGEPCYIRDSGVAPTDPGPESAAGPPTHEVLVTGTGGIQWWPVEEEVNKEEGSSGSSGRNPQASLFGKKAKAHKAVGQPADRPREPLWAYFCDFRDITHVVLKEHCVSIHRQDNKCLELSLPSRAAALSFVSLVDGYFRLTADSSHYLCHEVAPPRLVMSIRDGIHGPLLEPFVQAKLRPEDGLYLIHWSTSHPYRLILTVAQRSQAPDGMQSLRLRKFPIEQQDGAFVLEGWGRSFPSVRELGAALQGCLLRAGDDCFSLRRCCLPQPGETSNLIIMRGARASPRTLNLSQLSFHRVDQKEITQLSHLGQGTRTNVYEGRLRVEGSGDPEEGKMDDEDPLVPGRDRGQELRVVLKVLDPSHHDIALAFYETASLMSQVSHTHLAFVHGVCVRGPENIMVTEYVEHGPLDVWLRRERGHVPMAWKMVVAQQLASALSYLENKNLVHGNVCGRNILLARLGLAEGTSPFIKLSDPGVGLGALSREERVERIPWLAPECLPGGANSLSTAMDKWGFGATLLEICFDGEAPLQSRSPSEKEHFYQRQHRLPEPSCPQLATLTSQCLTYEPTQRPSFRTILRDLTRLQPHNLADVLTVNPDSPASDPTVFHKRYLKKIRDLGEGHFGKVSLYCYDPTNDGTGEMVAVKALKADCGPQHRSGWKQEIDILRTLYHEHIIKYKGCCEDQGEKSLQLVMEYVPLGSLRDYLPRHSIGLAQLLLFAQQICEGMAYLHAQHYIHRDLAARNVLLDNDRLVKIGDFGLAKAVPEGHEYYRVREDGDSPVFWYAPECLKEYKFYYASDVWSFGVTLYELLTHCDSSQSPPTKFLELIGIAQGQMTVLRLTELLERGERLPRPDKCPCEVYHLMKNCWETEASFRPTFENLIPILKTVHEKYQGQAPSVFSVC

SMILES	IC50 [nM]
COc1ccccc1Nc1cc(Nc2ccc(CC(=O)O[C@@H]3CCOC3)cn2)ncc1C(N)=O	2
CCOC(=O)Cc1ccc(Nc2cc(Nc3ccccc3OC)c(C(N)=O)cn2)nc1	21
COCCOC(=O)Cc1ccc(Nc2cc(Nc3ccccc3OC)c(C(N)=O)cn2)nc1	2

target: T2, JAK3/JAK1 (Homo sapiens, UniProt P23458+P52333); assay: Inhibition of JAK1/3-mediated STAT5 phosphorylation in human M07E cells preincubated for 30 mins followed by IL-15 stimulation measured after 15 mins by flow cytometry; format: cell-based; conditions: not given
T2 sequence (P23458 whole entry, one chain of several): as the sequence (P23458 whole entry, the tested form may be a part) above

SMILES	IC50 [nM]
COC[C@H](C)OC(=O)Cc1ccc(Nc2cc(Nc3ccccc3OC)c(C(N)=O)cn2)nc1	115
CC(C)OC(=O)Cc1ccc(Nc2cc(Nc3ccccc3Cl)c(C(N)=O)cn2)nc1	71
COc1ccccc1Nc1cc(Nc2ccc(CC(=O)O[C@@H]3CCOC3)cn2)ncc1C(N)=O	67
CCOC(=O)Cc1ccc(Nc2cc(Nc3ccccc3OC)c(C(N)=O)cn2)nc1	80
COCCOC(=O)Cc1ccc(Nc2cc(Nc3ccccc3OC)c(C(N)=O)cn2)nc1	63
CCOC(=O)Cc1ccc(Nc2cc(Nc3ccccc3Cl)c(C(N)=O)cn2)nc1	24

target: JAK2/JAK1 (Homo sapiens, UniProt O60674+P23458); assay: Inhibition of JAK1/2-mediated STAT1 phosphorylation in human M07E cells preincubated for 30 mins followed by IFN-alpha stimulation measured after 15 mins by flow cytometry; format: cell-based; conditions: not given
Sequence (P23458 whole entry): as the sequence (P23458 whole entry, the tested form may be a part) above
Sequence (O60674 whole entry): as the sequence (O60674 whole entry, the tested form may be a part) above

SMILES	IC50 [nM]
COC[C@H](C)OC(=O)Cc1ccc(Nc2cc(Nc3ccccc3OC)c(C(N)=O)cn2)nc1	58
CC(C)OC(=O)Cc1ccc(Nc2cc(Nc3ccccc3Cl)c(C(N)=O)cn2)nc1	115
COc1ccccc1Nc1cc(Nc2ccc(CC(=O)O[C@@H]3CCOC3)cn2)ncc1C(N)=O	48
CCOC(=O)Cc1ccc(Nc2cc(Nc3ccccc3OC)c(C(N)=O)cn2)nc1	58
COCCOC(=O)Cc1ccc(Nc2cc(Nc3ccccc3OC)c(C(N)=O)cn2)nc1	14
CCOC(=O)Cc1ccc(Nc2cc(Nc3ccccc3Cl)c(C(N)=O)cn2)nc1	60

target: T2, JAK3/JAK1; assay: Inhibition of JAK1/3-mediated STAT5 phosphorylation in human whole blood incubated for 30 mins followed by IL-2 addition measured after 15 mins by flow cytometry; format: tissue-based; conditions: not given

SMILES	IC50 [nM]
COC[C@H](C)OC(=O)Cc1ccc(Nc2cc(Nc3ccccc3OC)c(C(N)=O)cn2)nc1	> 50000
CC(C)OC(=O)Cc1ccc(Nc2cc(Nc3ccccc3Cl)c(C(N)=O)cn2)nc1	1200
COc1ccccc1Nc1cc(Nc2ccc(CC(=O)O[C@@H]3CCOC3)cn2)ncc1C(N)=O	> 50000
CCOC(=O)Cc1ccc(Nc2cc(Nc3ccccc3OC)c(C(N)=O)cn2)nc1	10200
COCCOC(=O)Cc1ccc(Nc2cc(Nc3ccccc3OC)c(C(N)=O)cn2)nc1	> 30000
CCOC(=O)Cc1ccc(Nc2cc(Nc3ccccc3Cl)c(C(N)=O)cn2)nc1	12200

test system: not listed separately; assay: Stability in human whole blood assessed as half life at 1 uM incubated upto 8 hrs by LC-MS/MS analysis; format: ADME, tissue-based; conditions: not given

SMILES	half-life at 1 µM [min]
CC(C)OC(=O)Cc1ccc(Nc2cc(Nc3ccccc3Cl)c(C(N)=O)cn2)nc1	65
CCOC(=O)Cc1ccc(Nc2cc(Nc3ccccc3OC)c(C(N)=O)cn2)nc1	5
CCOC(=O)Cc1ccc(Nc2cc(Nc3ccccc3Cl)c(C(N)=O)cn2)nc1	7

test system: not listed separately; assay: Metabolic stability in human skin S9 fraction measured upto 120 mins by LC-MS analysis; format: ADME, subcellular; conditions: not given

SMILES	half-life [min]
COC[C@H](C)OC(=O)Cc1ccc(Nc2cc(Nc3ccccc3OC)c(C(N)=O)cn2)nc1	12
CC(C)OC(=O)Cc1ccc(Nc2cc(Nc3ccccc3Cl)c(C(N)=O)cn2)nc1	67
COc1ccccc1Nc1cc(Nc2ccc(CC(=O)O[C@@H]3CCOC3)cn2)ncc1C(N)=O	8
CCOC(=O)Cc1ccc(Nc2cc(Nc3ccccc3OC)c(C(N)=O)cn2)nc1	12
COCCOC(=O)Cc1ccc(Nc2cc(Nc3ccccc3OC)c(C(N)=O)cn2)nc1	5
CCOC(=O)Cc1ccc(Nc2cc(Nc3ccccc3Cl)c(C(N)=O)cn2)nc1	14

test system: not listed separately; assay: Permeability of compound; format: ADME; conditions: not told; read-out: permeability

SMILES	Papp [×10⁻⁶ cm/s]
CCOC(=O)Cc1ccc(Nc2cc(Nc3ccccc3OC)c(C(N)=O)cn2)nc1	28
CCOC(=O)Cc1ccc(Nc2cc(Nc3ccccc3Cl)c(C(N)=O)cn2)nc1	11

test system: not listed separately; assay: Lipophilicity, LogD of compound; format: physicochemical; conditions: octanol/water

SMILES	logD
CCOC(=O)Cc1ccc(Nc2cc(Nc3ccccc3OC)c(C(N)=O)cn2)nc1	2.9
COCCOC(=O)Cc1ccc(Nc2cc(Nc3ccccc3OC)c(C(N)=O)cn2)nc1	2.9
CCOC(=O)Cc1ccc(Nc2cc(Nc3ccccc3Cl)c(C(N)=O)cn2)nc1	4.6

test system: not listed separately; assay: Thermodynamic solubility of the compound at pH 6.8 using crystalline form of sample; format: physicochemical; conditions: read-out: Therm_solubility

SMILES	solubility thermodynamic [µg/mL]
CCOC(=O)Cc1ccc(Nc2cc(Nc3ccccc3OC)c(C(N)=O)cn2)nc1	1 (≈ 2.37 µM)

test system: not listed separately; assay: Solubility of the compound at pH 6.8 using amorphous form of sample; format: physicochemical; conditions: buffer

SMILES	solubility [µg/mL]
CCOC(=O)Cc1ccc(Nc2cc(Nc3ccccc3Cl)c(C(N)=O)cn2)nc1	0.1 (≈ 0.235 µM)

test system: not listed separately; assay: Saturation solubility of compound in PEG400/transcutol/benzyl alcohol/water mixture using crystalline form of sample; format: physicochemical; conditions: not given

SMILES	solubility thermodynamic [µg/mL]
CCOC(=O)Cc1ccc(Nc2cc(Nc3ccccc3OC)c(C(N)=O)cn2)nc1	≥ 9000

test system: not listed separately; assay: Saturation solubility of compound in PEG400/transcutol/benzyl alcohol/water mixture using amorphous form of sample; format: physicochemical; conditions: not given

SMILES	solubility thermodynamic [µg/mL]
CCOC(=O)Cc1ccc(Nc2cc(Nc3ccccc3Cl)c(C(N)=O)cn2)nc1	8700 (≈ 20400 µM)

test system: not listed separately; assay: Stability of compound under light stress assessed as compound decomposition under sunlight with intensity of 4000 KJ/m2, irradiation of 250 W/m2, wavelength of >290 nm, temperature of 37 degreeC for 4 hrs using crystalline form of sample; format: ADME; conditions: read-out: Drug degradation

SMILES	degraded at 4 h [%]
CCOC(=O)Cc1ccc(Nc2cc(Nc3ccccc3OC)c(C(N)=O)cn2)nc1	0

test system: not listed separately; assay: Stability of compound under temperature stress assessed as compound degradation at 50 degreeC measured after 7 days using crystalline form of sample; format: physicochemical; conditions: time 7 day; read-out: Drug degradation

SMILES	degraded at 168 h [%]
CCOC(=O)Cc1ccc(Nc2cc(Nc3ccccc3OC)c(C(N)=O)cn2)nc1	2

test system: not listed separately; assay: Stability of compound under temperature stress assessed as compound degradation at 50 degreeC measured after 7 days using amorphous form of sample; format: physicochemical; conditions: time 7 day; read-out: Drug degradation

SMILES	degraded at 168 h [%]
CCOC(=O)Cc1ccc(Nc2cc(Nc3ccccc3Cl)c(C(N)=O)cn2)nc1	1

— ChEMBL document CHEMBL5370660, “Design of a Supersoft Topical JAK Inhibitor, Which Is Effective in Human Skin but Rapidly Deactivated in Blood” (J Med Chem, 2023)
